Data as given in US4401660A, “Ester derivatives of 5-O-mycaminosyl tylonolide and method of using same” (Eli Lilly and Company, priority 1981, dated 1983).

How the values were obtained:
[1] = tested on: Pasteurella multocida; test: Treatment of Pasteurella infections in chicks (Table V); assay type: in vivo, one-day-old chicks; conditions: Pasteurella multocida, sc, 4 h; 30 mg/kg by subcutaneous injection one and four hours post challenge; read-out: Deaths in Treated Chicks/Number Treated (converted)
In short: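 Dosing was 30 mg/kg by subcutaneous injection, one and four hours after challenge. Day-old chicks received 0.1 ml of a 10^-3 dilution of a 20-hour tryptose broth culture of avian P. multocida subcutaneously. Nonmedicated infected chicks served as controls, ten per group.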

[2] = tested on: Haemophilus influenzae R252; test: MIC, standard agar-dilution assay (Table II); assay type: cell-based; parameters: unit not given here; conditions: Haemophilus influenzae R252, ampicillin-resistant strain
Description: (§1) The MIC's in Table II were determined by standard agar-dilution assays. The MIC's in Table III were obtained using a conventional broth-dilution microtiter test.

[3] = tested on: Haemophilus influenzae Holt; test: MIC, standard agar-dilution assay (Table II); assay type: cell-based; parameters: unit not given here; conditions: ampicillin-sensitive strain
Description: as §1

[4] = tested on: Streptococcus Group D 9960; test: MIC, standard agar-dilution assay (Table II); assay type: cell-based; parameters: unit not given here
Description: as §1

[5] = tested on: Staphylococcus aureus V41; test: MIC, standard agar-dilution assay (Table II); assay type: cell-based; parameters: unit not given here; conditions: Staphylococcus aureus V41, penicillin-resistant strain
Description: as §1

[6] = tested on: Staphylococcus epidermidis EPI1; test: MIC, standard agar-dilution assay (Table II); assay type: cell-based; parameters: unit not given here
Description: as §1

[7] = tested on: Staphylococcus epidermidis EPI2; test: MIC, standard agar-dilution assay (Table II); assay type: cell-based; parameters: unit not given here
Description: as §1

[8] = tested on: Streptococcus pyogenes C203; test: MIC, standard agar-dilution assay (Table II); assay type: cell-based; parameters: unit not given here
Description: as §1

[9] = tested on: Staphylococcus aureus S13E; test: MIC, standard agar-dilution assay (Table II); assay type: cell-based; parameters: unit not given here
Description: as §1

[10] = tested on: Streptococcus pneumoniae Park I; test: MIC, standard agar-dilution assay (Table II); assay type: cell-based; parameters: unit not given here
Description: as §1

[11] = tested on: Staphylococcus aureus X400; test: MIC, standard agar-dilution assay (Table II); assay type: cell-based; parameters: unit not given here; conditions: Staphylococcus aureus X400, methicillin-resistant strain
Description: as §1

[12] = tested on: Streptococcus Group D X66; test: MIC, standard agar-dilution assay (Table II); assay type: cell-based; parameters: unit not given here
Description: as §1

[13] = tested on: Staphylococcus aureus X1.1; test: MIC, standard agar-dilution assay (Table II); assay type: cell-based; parameters: unit not given here
Description: as §1

[14] = tested on: Pasteurella multocida 22A; test: MIC, broth-dilution microtiter test (Table III); assay type: cell-based; parameters: unit not given here
Description: as §1

[15] = tested on: Mycoplasma hyorhinis; test: MIC, broth-dilution microtiter test (Table III); assay type: cell-based; parameters: unit not given here
Description: as §1

[16] = tested on: Pasteurella haemolytica 22C; test: MIC, broth-dilution microtiter test (Table III); assay type: cell-based; parameters: unit not given here
Description: as §1

[17] = tested on: Mycoplasma synoviae; test: MIC, broth-dilution microtiter test (Table III); assay type: cell-based; parameters: unit not given here
Description: as §1

[18] = tested on: Pasteurella multocida 40G; test: MIC, broth-dilution microtiter test (Table III); assay type: cell-based; parameters: unit not given here
Description: as §1

[19] = tested on: Pasteurella multocida 60A; test: MIC, broth-dilution microtiter test (Table III); assay type: cell-based; parameters: unit not given here; conditions: avian isolate
Description: as §1

[20] = tested on: Pasteurella multocida 68C; test: MIC, broth-dilution microtiter test (Table III); assay type: cell-based; parameters: unit not given here
Description: as §1

[21] = tested on: Pasteurella haemolytica 41D; test: MIC, broth-dilution microtiter test (Table III); assay type: cell-based; parameters: unit not given here
Description: as §1

[22] = tested on: Pasteurella multocida 17E; test: MIC, broth-dilution microtiter test (Table III); assay type: cell-based; parameters: unit not given here; conditions: bovine isolate
Description: as §1

[23] = tested on: Streptococcus sp. 80; test: MIC, broth-dilution microtiter test (Table III); assay type: cell-based; parameters: unit not given here
Description: as §1

[24] = tested on: Pasteurella haemolytica 23C; test: MIC, broth-dilution microtiter test (Table III); assay type: cell-based; parameters: unit not given here
Description: as §1

[25] = tested on: Mycoplasma gallisepticum; test: MIC, broth-dilution microtiter test (Table III); assay type: cell-based; parameters: unit not given here
Description: as §1

[26] = tested on: Staphylococcus aureus; test: MIC, broth-dilution microtiter test (Table III); assay type: cell-based; parameters: unit not given here
Description: as §1

Compound	mortality at 30 mg/kg [1] [%]	minimal inhibitory concentration (MIC) [2]	minimal inhibitory concentration (MIC) [3]	minimal inhibitory concentration (MIC) [4]	minimal inhibitory concentration (MIC) [5]	minimal inhibitory concentration (MIC) [6]	minimal inhibitory concentration (MIC) [7]	minimal inhibitory concentration (MIC) [8]	minimal inhibitory concentration (MIC) [9]	minimal inhibitory concentration (MIC) [10]	minimal inhibitory concentration (MIC) [11]	minimal inhibitory concentration (MIC) [12]	minimal inhibitory concentration (MIC) [13]	minimal inhibitory concentration (MIC) [14]	minimal inhibitory concentration (MIC) [15]	minimal inhibitory concentration (MIC) [16]	minimal inhibitory concentration (MIC) [17]	minimal inhibitory concentration (MIC) [18]	minimal inhibitory concentration (MIC) [19]	minimal inhibitory concentration (MIC) [20]	also measured
CCC1OC(=O)CC(O)C(C)C(OC2OC(C)C(OC(C)=O)C(N(C)C)C2OC(C)=O)C(CC=O)CC(C)C(=O)C=CC(C)=CC1COS(=O)(=O)c1ccc(C)cc1 (stereo not shown) [Compound 55]	100	1	1	0.125	0.125	0.25	0.25	0.06	0.25	0.03	0.25	0.125	0.125	6.25	0.78	3.12	0.05	6.25	3.12	3.12	minimal inhibitory concentration (MIC) [21]: 6.25; minimal inhibitory concentration (MIC) [22]: 3.12; minimal inhibitory concentration (MIC) [23]: 0.05; minimal inhibitory concentration (MIC) [24]: 3.12; minimal inhibitory concentration (MIC) [25]: 0.05; minimal inhibitory concentration (MIC) [26]: 0.195
CCC1OC(=O)CC(O)C(C)C(OC2OC(C)C(O)C(N(C)C)C2OC(C)=O)C(CC=O)CC(C)C(=O)C=CC(C)=CC1COC(=O)CCCC(=O)OC (stereo not shown) [Compound 71]	60	2	2	0.5	0.25	0.25	0.25	0.25	0.25	0.03	0.25	0.25	0.25	3.12	12.5	50	0.78	3.12	6.25	6.25	minimal inhibitory concentration (MIC) [21]: 12.5; minimal inhibitory concentration (MIC) [22]: 6.25; minimal inhibitory concentration (MIC) [23]: 1.56; minimal inhibitory concentration (MIC) [24]: 12.5; minimal inhibitory concentration (MIC) [25]: 0.195; minimal inhibitory concentration (MIC) [26]: 0.78
CCC1OC(=O)CC(O)C(C)C(OC2OC(C)C(O)C(N(C)C)C2O)C(CC=O)CC(C)C(=O)C=CC(C)=CC1COS(=O)(=O)c1ccc(NC(C)=O)cc1 (stereo not shown) [Compound 56, 23-O-(p-Acetamidobenzenesulfonyl)-OMT]	100	2	2	1	2	0.5	2	0.125	1	0.06	2	1	1	6.25	12.5	6.25	0.78	6.25	3.12	3.12	minimal inhibitory concentration (MIC) [21]: 6.25; minimal inhibitory concentration (MIC) [22]: 3.12; minimal inhibitory concentration (MIC) [23]: 0.195; minimal inhibitory concentration (MIC) [24]: 6.25; minimal inhibitory concentration (MIC) [25]: 0.39; minimal inhibitory concentration (MIC) [26]: 0.78
CCC(=O)OCC1C=C(C)C=CC(=O)C(C)CC(CC=O)C(OC2OC(C)C(OC(=O)CC)C(N(C)C)C2OC(=O)CC)C(C)C(O)CC(=O)OC1CC (stereo not shown) [Compound 8, 2',4',23-Tri-O-propionyl-OMT]	60	4	2	0.5	0.5	0.25	0.25	0.25	0.5	0.25	0.5	0.5	0.25	3.12	0.78	3.12	0.048	1.56	1.56	1.56	minimal inhibitory concentration (MIC) [21]: 3.12; minimal inhibitory concentration (MIC) [22]: 1.56; minimal inhibitory concentration (MIC) [23]: 0.195; minimal inhibitory concentration (MIC) [24]: 6.25; minimal inhibitory concentration (MIC) [25]: 0.048; minimal inhibitory concentration (MIC) [26]: 0.39
CCC(=O)OCC1C=C(C)C=CC(=O)C(C)CC(CC=O)C(OC2OC(C)C(O)C(N(C)C)C2OC(=O)CC)C(C)C(O)CC(=O)OC1CC (stereo not shown) [Compound 10, 2',23-Di-O-Propionyl-OMT]	10	8	2	0.5	0.5	0.25	0.25	0.25	0.5	0.125	0.5	0.5	0.25	6.25	0.78	6.25	0.097	1.56	1.56	1.56	minimal inhibitory concentration (MIC) [21]: 6.25; minimal inhibitory concentration (MIC) [22]: 1.56; minimal inhibitory concentration (MIC) [23]: 0.195; minimal inhibitory concentration (MIC) [24]: 6.25; minimal inhibitory concentration (MIC) [25]: 0.097; minimal inhibitory concentration (MIC) [26]: 0.39
